Target: T1, PAPD5 (Homo sapiens, UniProt Q8NDF8)
T1 construct: made in house
Assay: High-throughput luminescence (KinaseGlo) RNA polyadenylation assay, ATP utilization by recombinant PAPD5
Assay type: biochemical
Conditions: Table 4 (entries of Table 5), ratio of luminescence with inhibitor to DMSO; for Fold-change determined at compound concentration 33 μM: 33 μM compound; for Fold-change determined at compound concentration 100 μM: 100 μM compound, higher = higher inhibition
Procedure, shortened: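 Recombinant PAPD5 polyadenylates an oligonucleotide substrate using ATP, and remaining ATP is read by KinaseGlo luciferase luminescence. Compound was incubated for 2 h at room temperature, then with luciferase for 10 min.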

T1 sequence (Q8NDF8 68-698 isoform Q8NDF8-5): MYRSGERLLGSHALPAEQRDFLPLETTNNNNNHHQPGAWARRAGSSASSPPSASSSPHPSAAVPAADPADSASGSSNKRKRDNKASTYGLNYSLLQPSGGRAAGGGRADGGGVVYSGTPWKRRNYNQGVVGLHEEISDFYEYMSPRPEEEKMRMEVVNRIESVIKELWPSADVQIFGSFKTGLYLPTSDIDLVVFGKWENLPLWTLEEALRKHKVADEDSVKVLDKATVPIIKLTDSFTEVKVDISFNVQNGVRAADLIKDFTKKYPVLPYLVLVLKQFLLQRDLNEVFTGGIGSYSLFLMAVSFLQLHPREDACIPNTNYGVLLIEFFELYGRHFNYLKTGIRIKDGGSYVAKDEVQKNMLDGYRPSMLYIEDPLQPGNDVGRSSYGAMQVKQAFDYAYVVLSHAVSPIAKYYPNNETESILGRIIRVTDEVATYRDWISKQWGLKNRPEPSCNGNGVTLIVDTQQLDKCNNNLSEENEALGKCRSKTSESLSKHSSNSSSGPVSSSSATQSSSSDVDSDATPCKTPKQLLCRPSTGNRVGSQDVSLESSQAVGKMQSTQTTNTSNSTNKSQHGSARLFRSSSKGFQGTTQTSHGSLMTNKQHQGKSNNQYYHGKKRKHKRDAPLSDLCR

| SMILES | Fold-change determined at compound concentration 33 μM | Fold-change determined at compound concentration 100 μM |
| --- | --- | --- |
| CCCc1nnc(NC(=O)c2cc(=O)c3cc(C)c(C)cc3o2)s1 [Entry 127, 6,7-dimethyl-4-oxo-N-(5-propyl-1,3,4-thiadiazol-2-yl)-4H-chromene-2-carboxamide] | 1.397 | 1.984 |
| CCOC(=O)Cc1cc(=O)oc2cc(O)cc(O)c12 [Entry 128, Ethyl (5,7-dihydroxy-2-oxo-2H-chromen-4-yl)acetate] | 1.314 | 1.957 |
| CCOc1ccc2oc(=O)cc(CN3CCN(C(=O)c4ccc(OC)c(OC)c4)CC3)c2c1 [Entry 129, 4-[[4-(3,4-dimethoxybenzoyl)piperazin-1-yl]methyl]-6-ethoxychromen-2-one] | 1.153 | 1.395 |
| Cc1cc(=O)oc2cc(OCC(=O)Nc3ccc(O)c(C(=O)O)c3)ccc12 [Entry 130, 2-hydroxy-5-[[2-(4-methyl-2-oxochromen-7-yl)oxyacetyl]amino]benzoic acid] | 1.086 | 1.212 |
| CC(Oc1ccc2c3c(c(=O)oc2c1)CCC3)C(=O)O (centres unmarked) [Entry 131, 2-[(4-Oxo-1,2,3,4-tetrahydrocyclopenta[c]chromen-7-yl)oxy]propanoic acid] | 1.195 | 1.653 |
| COc1ccc(-c2coc3c2c(C)cc2oc(=O)c(CC(=O)O)c(C)c23)cc1 [Entry 132, [3-(4-methoxyphenyl)-4,9-dimethyl-7-oxo-7H-furo[2,3-f]chromen-8-yl]acetic acid] | 1.303 | 1.774 |
| O=c1oc2cc(OCc3nnn[nH]3)c(Cl)cc2c2c1CCC2 [Entry 133, 8-chloro-7-(1H-tetrazol-5-ylmethoxy)-2,3-dihydrocyclopenta[c]chromen-4(1H)-one] | 1.186 | 1.508 |
| Cc1cc(Cl)ccc1NS(=O)(=O)c1cc2[nH]c(=O)c(=O)[nH]c2cc1C [Entry 134, N-(4-chloro-2-methylphenyl)-7-methyl-2,3-dioxo-1,4-dihydroquinoxaline-6-sulfonamide] | 1.124 | 1.298 |
| COc1ccc(NS(=O)(=O)c2cc3[nH]c(=O)c(=O)[nH]c3cc2C)cc1Cl [Entry 135, N-(3-chloro-4-methoxyphenyl)-7-methyl-2,3-dioxo-1,4-dihydroquinoxaline-6-sulfonamide] | 1.191 | 1.347 |
| COc1ccc(S(=O)(=O)Nc2cc3c(cc2Oc2ccccc2)n(C)c(=O)c(=O)n3C)cc1 [Entry 136, N-(1,4-dimethyl-2,3-dioxo-7-phenoxy-1,2,3,4-tetrahydroquinoxalin-6-yl)-4-methoxybenzenesulfonamide] | 1.082 | 1.303 |
| Cc1cc2[nH]c(=O)c(=O)[nH]c2cc1S(=O)(=O)Nc1ccc(OC(F)(F)F)cc1 [Entry 137, 7-methyl-2,3-dioxo-N-[4-(trifluoromethoxy)phenyl]-1,4-dihydroquinoxaline-6-sulfonamide] | 1.12 | 1.301 |
| COc1cc(Cl)c(NS(=O)(=O)c2cc3[nH]c(=O)c(=O)[nH]c3cc2C)c(OC)c1 [Entry 138, N-(2-chloro-4,6-dimethoxyphenyl)-7-methyl-2,3-dioxo-1,4-dihydroquinoxaline-6-sulfonamide] | 1.161 | 1.317 |
| CCOC(=O)c1cccc(NS(=O)(=O)c2cc3[nH]c(=O)c(=O)[nH]c3cc2C)c1 [Entry 139, ethyl 3-[(7-methyl-2,3-dioxo-1,4-dihydroquinoxalin-6-yl)sulfonylamino]benzoate] | 1.272 | 1.549 |
| COc1cccc(C(=O)Nc2nc3nc(-c4ccccc4)cc(=O)n3[nH]2)c1 [Entry 140, 3-methoxy-N-(7-oxo-5-phenyl-1H-[1,2,4]triazolo[1,5-a]pyrimidin-2-yl)benzamide] | 1.329 | 1.91 |
| COc1ccc(-c2[nH]nc3nc(-c4cc(OC)c(OC)c(OC)c4)cc(C(=O)O)c23)cc1 [Entry 141, 3-(4-methoxyphenyl)-6-(3,4,5-trimethoxyphenyl)-2H-pyrazolo[3,4-b]pyridine-4-carboxylic acid] | 1.308 | 1.882 |
| CCc1cc(=O)n2nc(NCc3ccccc3C)nc2[nH]1 [Entry 143, 5-ethyl-2-[(2-methylbenzyl)amino][1,2,4]triazolo[1,5-a]pyrimidin-7(4H)-one] | 1.116 | 1.255 |
| Cc1ccc(-c2ccc3nnc(C)n3n2)cc1S(=O)(=O)N1CCCC1 [Entry 146, 3-methyl-6-(4-methyl-3-pyrrolidin-1-ylsulfonylphenyl)-[1,2,4]triazolo[4,3-b]pyridazine] | 1.07 | 1.217 |
| CC1=C2C(=NC(=O)CC2c2ccc(O)cc2)N(c2ccc3nncn3n2)N1 (centres unmarked) [Entry 147, 4-(4-hydroxyphenyl)-3-methyl-1-([1,2,4]triazolo[4,3-b]pyridazin-6-yl)-4,5-dihydro-2H-pyrazolo[3,4-b]pyridin-6-one] | 1.118 | 1.243 |
| Cc1nnc2ccc(-n3ncc4c3NC(=O)CC4c3ccc(O)cc3)nn12 (centres unmarked) [Entry 148, 4-(4-hydroxyphenyl)-1-(3-methyl[1,2,4]triazolo[4,3-b]pyridazin-6-yl)-1,4,5,7-tetrahydro-6H-pyrazolo[3,4-b]pyridin-6-one] | 1.05 | 1.215 |
| CCOC(=O)c1ccc(NC(=O)CCc2c(C)nc3nc[nH]n3c2=O)cc1 [Entry 149, ethyl 4-[3-(5-methyl-7-oxo-1H-[1,2,4]triazolo[1,5-a]pyrimidin-6-yl)propanoylamino]benzoate] | 1.183 | 1.309 |
| Cc1ccccc1C(=O)Nc1nc2nc(-c3ccccc3)cc(=O)n2[nH]1 [Entry 150, 2-methyl-N-(7-oxo-5-phenyl-1H-[1,2,4]triazolo[1,5-a]pyrimidin-2-yl)benzamide] | 1.19 | 1.577 |
| Cc1cccc(C(=O)Nc2nc3nc(-c4ccccc4)cc(=O)n3[nH]2)c1 [Entry 151, 3-methyl-N-(7-oxo-5-phenyl-1H-[1,2,4]triazolo[1,5-a]pyrimidin-2-yl)benzamide] | 1.312 | 1.799 |
| O=c1c2c([nH]c3nc(CNc4ccc(Br)cc4)nn13)CCC2 [Entry 152, 2-{[(4-bromophenyl)amino]methyl}-4,5,6,7-tetrahydro-8H-cyclopenta[d][1,2,4]triazolo[1,5-a]pyrimidin-8-one] | 1.146 | 1.461 |
| O=c1c2c([nH]c3nc(CNc4ccccc4F)nn13)CCC2 [Entry 153, 2-{[(2-fluorophenyl)amino]methyl}-4,5,6,7-tetrahydro-8H-cyclopenta[d][1,2,4]triazolo[1,5-a]pyrimidin-8-one] | 1.077 | 1.259 |
| Cc1ccc(Cl)cc1NCc1nc2[nH]c3c(c(=O)n2n1)CCC3 [Entry 154, 2-{[(5-chloro-2-methylphenyl)amino]methyl}-4,5,6,7-tetrahydro-8H-cyclopenta[d][1,2,4]triazolo[1,5-a]pyrimidin-8-one] | 1.013 | 1.282 |
| CCCc1cc(=O)n2nc(CNc3ccc(Cl)cc3)nc2[nH]1 [Entry 155, 2-{[(4-chlorophenyl)amino]methyl}-5-propyl[1,2,4]triazolo[1,5-a]pyrimidin-7(4H)-one] | 1.097 | 1.372 |
| CCOC(=O)c1c[nH]c2nc(NCc3cccc(Br)c3)nn2c1=O [Entry 156, ethyl 2-[(3-bromophenyl)methylamino]-7-oxo-1H-[1,2,4]triazolo[1,5-a]pyrimidine-6-carboxylate] | 1.212 | 1.516 |
| O=S(=O)(NC1=NC2=NC(c3ccccc3)=CC(c3ccc(F)cc3)N2N1)c1ccc(Cl)cc1 (centres unmarked) [Entry 157, 4-chloro-N-[7-(4-fluorophenyl)-5-phenyl-1,7-dihydro-[1,2,4]triazolo[1,5-a]pyrimidin-2-yl]benzenesulfonamide] | 1.059 | 1.203 |
